Laboratory results reported in patent US20230078764A1 (Yumanity Therapeutics, Inc., priority 2019, published 2023).

Experiments:
human SCD1 = target: T1, human SCD1 (Homo sapiens, UniProt O00767); assay: Growth inhibition of yeast strain expressing human SCD1 as sole desaturase (OLE1 deleted), OD600 readout; assay type: cell-based; conditions: yeast strain expressing human SCD1 as sole desaturase; growth (OD600) after 40 h at 30° C.; read-out: SCD1 IC50
T1 construct: expressed in transfected cells; host or cells: yeast strain with OLE1 deleted, plasmid-borne human SCD1 (selected in SD-Ura)
T1 sequence (O00767 1-359): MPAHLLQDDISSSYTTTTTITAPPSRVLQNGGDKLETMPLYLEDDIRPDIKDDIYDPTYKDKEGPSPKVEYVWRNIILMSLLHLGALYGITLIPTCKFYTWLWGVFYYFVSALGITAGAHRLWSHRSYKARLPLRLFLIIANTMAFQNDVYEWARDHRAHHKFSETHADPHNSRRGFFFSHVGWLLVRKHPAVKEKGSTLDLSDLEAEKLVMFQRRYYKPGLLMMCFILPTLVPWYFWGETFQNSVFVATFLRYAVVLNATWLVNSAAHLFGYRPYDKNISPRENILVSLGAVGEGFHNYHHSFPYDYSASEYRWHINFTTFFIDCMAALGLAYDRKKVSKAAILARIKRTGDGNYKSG

human SCD5 = target: T2, human SCD5 (Homo sapiens, UniProt Q86SK9); assay: Growth inhibition of yeast strain expressing human SCD5 as sole desaturase (OLE1 deleted), OD600 readout; assay type: cell-based; conditions: yeast strain expressing human SCD5 as sole desaturase; growth (OD600) after 40 h at 30° C.; read-out: SCD5 IC50
T2 construct: expressed in transfected cells; host or cells: yeast strain with OLE1 deleted, plasmid-borne human SCD5 (selected in SD-Ura)
T2 sequence (Q86SK9 1-330): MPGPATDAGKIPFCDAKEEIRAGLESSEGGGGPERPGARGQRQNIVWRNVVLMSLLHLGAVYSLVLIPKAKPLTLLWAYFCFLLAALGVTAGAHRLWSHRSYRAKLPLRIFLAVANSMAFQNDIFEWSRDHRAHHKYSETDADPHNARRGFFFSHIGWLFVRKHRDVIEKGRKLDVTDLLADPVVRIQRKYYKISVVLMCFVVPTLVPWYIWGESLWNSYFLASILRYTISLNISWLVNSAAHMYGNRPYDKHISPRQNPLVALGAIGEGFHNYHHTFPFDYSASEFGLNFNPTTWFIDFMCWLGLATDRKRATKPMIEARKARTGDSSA

| IC50 (human SCD1) | IC50 (human SCD5) | SMILES |
| --- | --- | --- |
| 1.68 µM | 0.48 µM | CCn1cccc(C(=O)Nc2ccc(Cc3cccc(F)c3)cn2)c1=O [Compound 332] |
| 0.11 µM | 0.18 µM | C=Cc1ncc(C(=O)Nc2ccc(Cc3cccc(Cl)c3)cn2)cc1F [Compound 333] |
| > 45 µM | 9.39 µM | O=C(Nc1ccc(Cc2cccc(F)c2)cn1)c1cc(Br)sn1 [Compound 334] |
| 15.4 µM | 0.69 µM | Cn1ccc(C(=O)Nc2ccc(Cc3cccc(F)c3)cn2)nc1=O [Compound 335] |
| > 45 µM | 4.27 µM | Cn1cc(C(=O)N[C@H]2CC[C@H](Cc3cccc(Cl)c3)CC2)ccc1=O [Compound 336] |
| > 45 µM | 9.87 µM | Cn1cc(C(=O)Nc2ccc(C#CC3CC3)cn2)ccc1=O [Compound 337] |
| > 45 µM | 16.3 µM | Cn1nc(C(=O)Nc2cc(Cc3ccc(Cl)cc3)ccn2)ccc1=O [Compound 338] |
| > 45 µM | 17.7 µM | CC1(C)CN(C(=O)c2ccc(Cc3cccc(F)c3)cn2)CCO1 [Compound 339] |
| 0.09 µM | 0.12 µM | CN1N=C(C(=O)Nc2ncc(Cc3cccc(C(F)(F)F)c3)s2)CCC1=O [Compound 340] |
| > 45 µM | 2.7 µM | CN1N=C(C(=O)Nc2ncc(Cc3ccc(C#N)cc3)s2)CCC1=O [Compound 341] |
| > 45 µM | 20.9 µM | Cn1cc(C(=O)Nc2ccc(Nc3cccc(Cl)c3)cn2)ccc1=O [Compound 342] |
| 3.14 µM | 3.42 µM | CN1N=C(C(=O)Nc2ccc(Cc3cccc(F)c3)s2)CCC1=O [Compound 343] |
| > 45 µM | 26.3 µM | O=C(Nc1ccc(Cc2cccc(F)c2)cn1)c1ccn2cnnc2c1 [Compound 344] |
| 3.95 µM | 2.52 µM | Cn1nc(C(=O)Nc2nnc(Cc3cccc(F)c3)s2)ccc1=O [Compound 345] |
| 0.34 µM | 0.55 µM | Cn1nc(C(=O)Nc2nnc(Cc3cc(F)cc(Cl)c3)s2)ccc1=O [Compound 346] |
| 0.68 µM | 0.71 µM | Cn1nc(C(=O)Nc2nnc(Cc3ccc(F)c(Cl)c3)s2)ccc1=O [Compound 347] |
| 7.37 µM | 4.96 µM | CN(Cc1ccc(C(=O)Nc2ccc(Cc3cccc(Cl)c3)cn2)cn1)C(=O)OC(C)(C)C [Compound 348] |
| > 45 µM | 32.3 µM | Cn1cc(C(=O)Nc2ccc(Nc3cccc(F)c3)cn2)ccc1=O [Compound 349] |
| 2.6 µM | 5.42 µM | Cn1cc(C(=O)Nc2nnc(Cc3ccc(F)c(Cl)c3)s2)ccc1=O [Compound 350] |
| > 45 µM | 35.5 µM | Cn1nc(C(=O)Nc2cnc(Cc3cccc(Cl)c3)nc2)ccc1=O [Compound 351] |
| > 45 µM | 35.5 µM | Cn1cc(NCc2ccc(Cc3cccc(F)c3)cn2)ccc1=O [Compound 352] |
| 1.94 µM | 1.36 µM | Cn1cc(C(=O)Nc2nc(C#N)c(Cc3cccc(F)c3)s2)ccc1=O [Compound 353] |
| 6.78 µM | 0.28 µM | CC(=O)c1ccc(C(=O)Nc2ccc(Cc3cccc(Cl)c3)cn2)cn1 [Compound 354] |
| 0.54 µM | 0.16 µM | CCn1cc(C(=O)Nc2ccc(Cc3cccc(F)c3)cn2)cn1 [Compound 355] |
| 0.12 µM | 0.04 µM | Cn1cc(C(=O)Nc2ccc(Cc3cccc(F)c3)cn2)cn1 [Compound 356] |
| 4.06 µM | 0.05 µM | Cn1cc(NC(=O)c2ccc(Cc3cccc(F)c3)cn2)ccc1=O [Compound 357] |
| 6.05 µM | 0.17 µM | O=C(Nc1ccc(Cc2cccc(F)c2)cn1)c1cnc2nsnc2c1 [Compound 358] |
| 18.7 µM | 3.27 µM | Cn1cc(-c2cnc(NC(=O)Cc3cccc(F)c3)cn2)ccc1=O [Compound 359] |
| 32.6 µM | 6.59 µM | Cn1nc(C(=O)Nc2ccc(CCOc3cccc(F)c3)cn2)ccc1=O [Compound 360] |
| > 45 µM | 2.63 µM | Cn1cc(C(=O)Nc2ccc(OCc3cccc(Cl)c3)cn2)ccc1=O [Compound 361] |
